Reference: patent publication US7563946B2, “Plant development regulating gene and its uses” (CropDesign, N.V., priority 2000, dated 2009)

Assays:
DR5::GUS [1] = test: Auxin sensitivity test, DR5::GUS expression in wildtype seedlings; format: in vivo, Arabidopsis thaliana; conditions: 3 days on medium
Excerpt: (§1) However, new methods to detect auxin responses have emerged, for example with synthetic auxin responsive promoter elements binding ARF transcription factors, such as DR5::GUS (Ulmasov et al., 1997). Since there is also a resemblance of the hbt early embryo phenotype to axr6, bdl and mp mutants (Hardtke and Berleth, 1998; Hamann et al., 1999; Hobbie et al 2000), we used the DR5::GUS construct to re-investigated auxin responses in hbt seedlings. In wildtype seedling roots there is a maximum of DR5::GUS staining in the upper part of the columella (FIG. 17A). This peak is absent in hbt seedlings (FIG. 17F) where no GUS staining is visible. Since the specification of the columella cells is defective in hbt seedlings, we wanted to know whether hbt mutant cells are capable of sensing auxin. Therefore, hbt seedlings were incubated for 3 days on media containing different concentrations of the synthetic auxin 2,4 D, and DR5::GUS expression was analysed. […] It is therefore possible that the HBT gene has a role in the perception of auxin levels.
(§2) DR5::GUS expression in wt roots (A-E) and in hbt seedlings […]. Three days post germination seedlings were transferred to 0.5 GM plates (A and F) and 0.5 GM plates containing 10^−9 M 2,4 D (B and G), 10^−8 M 2,4 D (C and H), 10^−7 M 2,4 D (D and I) and 10^−6 M 2,4 D (E and J) and incubated for another three days. Mutants are shown at 10× magnification of the wildtype seedling.
(§3) DR5::GUS constructs was used (Ulmasov et al., 1997b). Seedlings were germinated on 0.5 GM medium as described, 3 dpg transferred to fresh 0.5 GM plates containing different concentrations of 2,4 D or IAA (5.10^−9 M until 5.10^−6 M) (see FIG. 17) and incubated for an additional 3 days. After that the b-glucuronidase was visualized as described (Willemsen et al., 1998).

DR5::GUS [2] = test: Auxin sensitivity test, DR5::GUS expression in hbt mutant seedlings; format: in vivo, Arabidopsis thaliana
Excerpt: as §1, §2, §3

hbt seedlings = hbt seedlings treated with ethylene

SMILES	DR5::GUS expression in wildtype hypocotyls (DR5::GUS [1]; 5.10^-6 M)	DR5::GUS expression in wildtype root (DR5::GUS [1]; 5.10^-7 M)	DR5::GUS expression in wildtype roots (DR5::GUS [1]; 5.10^-9 M until 5.10^-8 M)	DR5::GUS expression in hbt hypocotyls (DR5::GUS [2]; 5.10^-6 M, 3 days on medium)	DR5::GUS expression in hbt root pole (DR5::GUS [2]; 5.10^-7 M, 3 days on medium)	DR5::GUS staining in hbt seedlings (DR5::GUS [2]; 5.10^-9 M until 5.10^-8 M, 3 days on medium)	DR5::GUS expression in hbt embryos compared to wildtype (DR5::GUS [2]; embryos, after induction)	Auxin sensitivity of hbt seedlings (synthetic auxin response element) (DR5::GUS [2]; hbt seedlings versus wildtype)	Re-specification of epidermal cells on the hypocotyl (hbt seedlings)
O=C(O)COc1ccc(Cl)cc1Cl [2,4 D]	never observed any ectopic DR5 expression	quite intense and throughout the entire root	ectopic expression of the DR5::GUS promoter in the meristem of wildtype roots	strong DR5 expression	a DR5 peak in the root pole of hbt	no staining observed	no differences compared to wildtype	altered auxin sensitivity	
C=C [ethylene]									a large number of ectopic outgrowths was induced
